Test results as given in patent US11071721B2, “Bicyclic amide compounds and methods of use thereof” (Genentech, Inc., priority 2016, dated 2021).

The compounds below were run against human RIP1 kinase domain (2-375) (Homo sapiens (Human), UniProt Q13546) (assay: RIP1 kinase inhibition assay (Transcreener ADP biochemical enzyme assay)). Conditions: Ki app (Morrison tight-binding fit); 50 nM enzyme, 50 uM ATP, 2 hours incubation, fluorescence polarization.
human RIP1 kinase domain (2-375), sequence (Q13546 2-375): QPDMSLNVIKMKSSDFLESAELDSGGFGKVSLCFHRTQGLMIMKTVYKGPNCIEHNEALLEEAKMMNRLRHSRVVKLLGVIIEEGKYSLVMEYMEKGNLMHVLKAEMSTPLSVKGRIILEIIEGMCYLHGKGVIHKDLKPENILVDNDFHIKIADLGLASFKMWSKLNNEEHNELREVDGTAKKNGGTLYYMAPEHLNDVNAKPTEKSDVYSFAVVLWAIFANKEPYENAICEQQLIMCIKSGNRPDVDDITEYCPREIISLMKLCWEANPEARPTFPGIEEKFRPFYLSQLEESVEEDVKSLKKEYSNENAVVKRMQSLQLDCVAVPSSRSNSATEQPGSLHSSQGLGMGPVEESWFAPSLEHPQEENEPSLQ
Method: RIP1 Kinase Inhibition Assays (Biochemical Assay):
The compounds of the present invention were tested for their capacity to inhibit RIP K activity as described below.
Enzyme assay: The ability of the receptor interacting protein kinase (RIPK1) to catalyze the hydrolysis of adenosine-5′-triphosphate (ATP) is monitored using the Transcreener ADP (adenosine-5′-diphosphate) assay (BellBrook Labs). Purified human RIP1 kinase domain (2-375) (50 nM) derived from a baculovirus-infected insect cell expression system is incubated with test compounds for 2 hours in 50 mM Hepes buffer (pH 7.5) containing 30 mM MgCl2, 1 mM dithiothreitol, 50 uM ATP, 0.002% Brij-35, and 0.5% dimethyl sulfoxide (DMSO). Reactions are quenched by the addition of 1× Bell Brooks Stop buffer B (20 mM Hepes (ph7.5), 40 mM ethylenediaminetetraacetic acid and 0.02% Brij-35) containing an additional 12 mM EDTA and 55 ug/mL ADP2 antibody and 4 nM ADP-AlexaFluor® 633 tracer. The tracer bound to the antibody is displaced by the ADP generated during the RIP1K reaction, which causes a decrease in fluorescence polarization that is measured by laser excitation at 633 nm with a FP microplate reader M1000. Fractional activity was plotted against test article concentration. Using Genedata Screener software (Genedata; Basel, Switzerland), the data were fit to the tight-binding apparent inhibition constant (Ki^app) Morrison equation [Williams, J. W. and Morrison, J. F. (1979) The kinetics of reversible tight-binding inhibition. Methods Enzymol 63: 437-67]. The following equation was used to calculate fractional activity and Ki^app:
[formula] where [E]T and [I]T are the total concentrations of active enzyme and test article, respectively.
Compound `O=C(c1nc2n(n1)C(c1ccccc1F)CC2)N1CC(F)C1` (racemic) [Example 24, (3-fluoroazetidin-1-yl)-[5-(2-fluorophenyl)-6,7-dihydro-5H-pyrrolo[1,2-b][1,2,4]triazol-2-yl]methanone] has a Ki of 0.194 µM. For `CNC(=O)c1nc2n(n1)C(c1ccccc1)CC2` (racemic) [Example 25, N-methyl-5-phenyl-6,7-dihydro-5H-pyrrolo[1,2-b][1,2,4]triazole-2-carboxamide], the Ki was 3.6 µM. Compound `O=C(c1nc2n(n1)C(c1ccccc1)CC2)N1CCC1` (racemic) [Example 26, azetidin-1-yl-(5-phenyl-6,7-dihydro-5H-pyrrolo[1,2-b][1.2.4]triazol-2-yl)methanone] has a Ki of 0.53 µM. `CN(C)C(=O)c1nc2n(n1)C(c1ccccc1)CC2` (racemic) [Example 27, N,N-dimethyl-5-phenyl-6,7-dihydro-5H-pyrrolo[1,2-b][1,2,4]triazole-2-carboxamide] gave a Ki of 2.2 µM. `O=C(c1nc2n(n1)C(c1ccccc1)CC2)N1CC2CC1C2` (racemic) [Example 28, 2-azabicyclo[2.1.1]hexan-2-yl-(5-phenyl-6,7-dihydro-5H-pyrrolo[1,2-b][1,2,4]triazol-2-yl)methanone] gave a Ki of 8.9 µM. In the case of `O=C(c1nc2n(n1)C(c1ccccc1)CC2)N1CCCCC1` (racemic) [Example 29, (5-phenyl-6,7-dihydro-5H-pyrrolo[1,2-b][1,2,4]triazol-2-yl)-(1-piperidyl)methanone], the Ki is reported as 5.4 µM. In the case of `O=C(c1nc2n(n1)C(c1ccccc1)CC2)N1CCCC1` (racemic) [Example 30, (5-phenyl-6,7-dihydro-5H-pyrrolo[1,2-b][1,2,4]triazol-2-yl)-pyrrolidin-1-yl-methanone], the Ki is reported as 6.4 µM. `CN(C)C(=O)c1nc2n(n1)C(c1ccccc1F)CC2` (racemic) [Example 33] showed a Ki of 1.4 µM. For `O=C(c1nc2n(n1)C(c1ccccc1F)CC2)N1CCCC1` (racemic) [Example 34], the Ki was 3.4 µM. `O=C(c1nc2n(n1)[C@H](c1ccccc1)C[C@H]2F)N1CC(F)C1` (racemic) [Example 35] was tested, and the Ki was 1.3 µM. Work on `O=C(c1cc2n(n1)CCOC2c1ccccc1F)N1CC(F)(F)C1` (racemic) [Example 37, (3,3-difluoroazetidin-1-yl)-[4-(2-fluorophenyl)-6,7-dihydro-4H-pyrazolo[5,1-c][1,4]oxazin-2-yl]methanone] yielded a Ki of 1.4 µM. In the case of `O=C(c1nc2n(n1)[C@@H](c1ccccc1)C[C@H]2F)N1CC(F)C1` (racemic) [Example 39], the Ki is reported as 0.032 µM. For `CCC(F)(F)C1CCc2nc(C(=O)N3CC(F)(F)C3)nn21` (racemic) [Example 40, (3,3-difluoroazetidin-1-yl)-[5-(1,1-difluoropropyl)-6,7-dihydro-5H-pyrrolo[1,2-b][1,2,4]triazol-2-yl]methanone], the Ki was 0.92 µM. For `CN(C)C(=O)c1nc2n(n1)CCOC2c1ccccc1` (racemic) [Example 41, N,N-dimethyl-8-phenyl-6,8-dihydro-5H-[1,2,4]triazolo[5,1-c][1,4]oxazine-2-carboxamide], the Ki was 8 µM. With `CN(C)C(=O)c1nc2n(n1)CCOC2c1ccccc1F` (racemic) [Example 43, 8-(2-fluorophenyl)-N,N-dimethyl-6,8-dihydro-5H-[1,2,4]triazolo[5,1-c][1,4]oxazine-2-carboxamide] the Ki was 5 µM. `CCN(CC)C(=O)c1nc2n(n1)CCOC2c1ccccc1F` (racemic) [Example 44, N,N-diethyl-8-(2-fluorophenyl)-6,8-dihydro-5H-[1,2,4]triazolo[5,1-c][1,4]oxazine-2-carboxamide] was tested, and the Ki was 4.8 µM. Work on `O=C(c1nc2n(n1)CCOC2c1ccccc1F)N1CC(F)C1` (racemic) [Example 45, (3-fluoroazetidin-1-yl)-[8-(2-fluorophenyl)-6,8-dihydro-5H-[1,2,4]triazolo[5,1-c][1,4]oxazin-2-yl]methanone] yielded a Ki of 2.3 µM. With `O=C(c1nc2n(n1)C(c1ccccc1)C1CC21)N1CC(F)C1` (racemic) [Example 46] the Ki was 0.917 µM. For `O=C(c1nc2n(n1)C(c1ccccc1)C1CC21)N1CC(F)(F)C1` (racemic) [Example 47], the Ki was 0.195 µM. In the case of `O=C(c1nc2n(n1)[C@H](C(F)(F)F)CC2)N1CC(F)(F)C1` (racemic) [Example 49, (3,3-difluoroazetidin-1-yl)-[rac-(5S)-5-(trifluoromethyl)-6,7-dihydro-5H-pyrrolo[1,2-b][1,2,4]triazol-2-yl]methanone], the Ki is reported as 5 µM. For `O=C(c1nc2n(n1)[C@H](c1ccccc1)C[C@@H]2F)N1CC(C(F)(F)F)C1` (racemic) [Example 50, [rac-(5S,7S)-7-fluoro-5-phenyl-6,7-dihydro-5H-pyrrolo[1,2-b][1,2,4]triazol-2-yl]-[3-(trifluoromethyl)azetidin-1-yl]methanone], the Ki was 1.6 µM. `O=C(c1nc2n(n1)[C@H](c1ccccc1)C[C@@H]2F)N1CC(C(F)F)C1` (racemic) [Example 51, [3-(difluoromethyl)azetidin-1-yl]-[rac-(5S, 7S)-7-fluoro-5-phenyl-6,7-dihydro-5H-pyrrolo[1,2-b][1,2,4]triazol-2-yl]methanone] was tested, and the Ki was 0.1 µM. `O=C(c1nc2n(n1)[C@H](c1ccccc1)C[C@@H]2F)N1CC[C@@H]1C(F)F` (racemic) [Example 53, [rac-(2R)-2-(difluoromethyl)azetidin-1-yl]-[rac-(5S,7S)-7-fluoro-5-phenyl-6,7-dihydro-5H-pyrrolo[1,2-b][1,2,4]triazol-2-yl]methanone] gave a Ki of 0.009 µM. Work on `COCCN(CC(F)(F)F)C(=O)c1nc2n(n1)[C@H](c1ccccc1)C[C@@H]2F` (racemic) [Example 55, rac-(5S,7S)-7-fluoro-N-(2-methoxyethyl)-5-phenyl-N-(2,2,2-trifluoroethyl)-6,7-dihydro-5H-pyrrolo[1,2-b][1,2,4]triazole-2-carboxamide] yielded a Ki of 3.9 µM. Work on `COCCN(CC(F)F)C(=O)c1nc2n(n1)[C@@H](c1ccccc1)C[C@H]2F` (racemic) [Example 56, rac-(5R,7R)-N-(2,2-difluoroethyl)-7-fluoro-N-(2-methoxyethyl)-5-phenyl-6,7-dihydro-5H-pyrrolo[1,2-b[[1,2,4]triazole-2-carboxamide] yielded a Ki of 0.52 µM. `O=C(c1nc2n(n1)[C@H](c1ccccc1)C[C@@H]2F)N(CC(F)(F)F)C1COC1` (racemic) [Example 57, rac-(5S,7S)-7-fluoro-N-(oxetan-3-yl)-5-phenyl-N-(2,2,2-trifluoroethyl)-6,7-dihydro-5H-pyrrolo[1,2-b][1,2,4]triazole-2-carboxamide] showed a Ki of 0.51 µM. Compound `O=C(c1nc2n(n1)[C@H](c1ccccc1)C[C@@H]2F)N(CC(F)F)C1CC1` (racemic) [Example 58, rac-(5S,7S)-N-cyclopropyl-N-(2,2-difluoroethyl)-7-fluoro-5-phenyl-6,7-dihydro-5H-pyrrolo[1,2-b][1,2,4]triazole-2-carboxamide] has a Ki of 0.57 µM. With `O=C(c1nc2n(n1)[C@H](c1ccccc1)C[C@@H]2F)N(CC(F)(F)F)C1CC1` (racemic) [Example 59, rac-(5S,7S)-N-cyclopropyl-7-fluoro-5-phenyl-N-(2,2,2-trifluoroethyl)-6,7-dihydro-5H-pyrrolo[1,2-b][1,2,4|]triazole-2-carboxamide] the Ki was 2.2 µM. `O=C(c1nc2n(n1)[C@H](c1ccccc1)C[C@@H]2F)N1CCC1C(F)F` (mixture of isomers) [Example 60, [2-(difluoromethyl)azetidin-1-yl]-[rac-(5S,7S)-7-fluoro-5-phenyl-6,7-dihydro-5H-pyrrolo[1,2-b][1,2,4]triazol-2-yl]methanone] was tested, and the Ki was 0.017 µM. `O=C(c1nc2n(n1)[C@H](c1ccccc1)C[C@@H]2F)N(C1CC1)C1CC1` (racemic) [Example 61, rac-(5S,7S)-N,N-dicyclopropyl-7-fluoro-5-phenyl-6,7-dihydro-5H-pyrrolo[1,2-b] [1,2,4]triazole-2-carboxamide] showed a Ki of 3.2 µM. `CC1CN(C(=O)c2nc3n(n2)[C@H](c2ccccc2)C[C@@H]3F)Cc2ccnn21` (mixture of isomers) [Example 62, (7-methyl-6,7-dihydro-4H-pyrazolo[1,5-a]pyrazin-5-yl)-[rac-(5S,7S)-7-fluoro-5-phenyl-6,7-dihydro-5H-pyrrolo[1,2-b][1,2,4]triazol-2-yl]methanone] gave a Ki of 0.13 µM. `Cc1cc2n(n1)CCN(C(=O)c1nc3n(n1)[C@H](c1ccccc1)C[C@@H]3F)C2` (racemic) [Example 63, (2-methyl-6,7-dihydro-4H-pyrazolo[1,5-a]pyrazin-5-yl)-[rac-(5S,7S)-7-fluoro-5-phenyl-6,7-dihydro-5H-pyrrolo[1,2-b][1,2,4]triazol-2-yl]methanone] was tested, and the Ki was 2.3 µM. In the case of `O=C(c1nc2n(n1)[C@@H](c1ccccc1)C[C@H]2F)N1CCC[C@H]1C(F)F` (racemic) [Example 64, [rac-(2S)-2-(difluoromethyl)pyrrolidin-1-yl]-[rac-(5R,7R)-7-fluoro-5-phenyl-6,7-dihydro-5H-pyrrolo[1,2-b][1,2,4]triazol-2-yl]methanone], the Ki is reported as 0.004 µM. `O=C(c1nc2n(n1)[C@H](c1ccccc1)C[C@@H]2F)N1CCn2ccnc2C1` (racemic) [Example 68, 6,8-dihydro-5H-imidazo[1,2-a]pyrazin-7-yl-[rac-(5S,7S)-7-fluoro-5-phenyl-6,7-dihydro-5H-pyrrolo[1,2-b][1,2,4]triazol-2-yl]methanone] gave a Ki of 0.049 µM.
